Assay results published in patent publication US4608373A, “Cephem compounds” (Yamanouchi Pharmaceutical Co., Ltd., priority 1982, dated 1986).
Values after ≈ are worked out from the molar mass of the structure shown. Structures can show the parent of a compound that is named as a salt.

How the values were obtained:
Assay type in all cases: cell-based
Staph. aureus ATCC 6538P = experiment: Antibacterial activity (MIC), Staph. aureus ATCC 6538P; details: Staphylococcus aureus, ATCC6538P, read-out: MIC (minimum effective inhibitory concentration)
Description: (§1) Antibacterial activities (minimum effective inhibitory concentrations) of the compounds of formula I are shown in the following table in comparison with those of cefatazidime having the structure [drawing 5] and cefmenoxime having the structure [drawing 6]

Staph. aureus Smith = experiment: Antibacterial activity (MIC), Staph. aureus Smith; details: Staphylococcus aureus, read-out: MIC (minimum effective inhibitory concentration)
Description: as §1

Staph. aureus Terashima = experiment: Antibacterial activity (MIC), Staph. aureus Terashima; details: Staphylococcus aureus, read-out: MIC (minimum effective inhibitory concentration)
Description: as §1

E. coli Ebara = experiment: Antibacterial activity (MIC), E. coli Ebara; details: Escherichia coli; E. coli Ebara; read-out: MIC (minimum effective inhibitory concentration)
Description: as §1

[1] = tested on: Kleb. pneumoniae ATCC 10031; experiment: Antibacterial activity (MIC), Kleb. pneumoniae ATCC 10031; details: Klebsiella pneumoniae, ATCC10031, read-out: MIC (minimum effective inhibitory concentration)
Description: as §1

Proteus morgani IID 602 = experiment: Antibacterial activity (MIC), Proteus morgani IID 602; details: Proteus morgani IID 602; read-out: MIC (minimum effective inhibitory concentration)
Description: as §1

Serr. marcescens IID 620 = experiment: Antibacterial activity (MIC), Serr. marcescens IID 620; details: Serratia marcescens, IID620; Serr. marcescens IID 620; read-out: MIC (minimum effective inhibitory concentration)
Description: as §1

[2] = tested on: Ent. aerogenes ATCC 13048 (MS-1); experiment: Antibacterial activity (MIC), Ent. aerogenes ATCC 13048 (MS-1); details: Klebsiella aerogenes, ATCC13048, read-out: MIC (minimum effective inhibitory concentration)
Description: as §1

Ent. cloacae V-8 = experiment: Antibacterial activity (MIC), Ent. cloacae V-8; details: Enterobacter cloacae, V8, read-out: MIC (minimum effective inhibitory concentration)
Description: as §1

[3] = tested on: Ps. aeruginosa NCTC 10490; experiment: Antibacterial activity (MIC), Ps. aeruginosa NCTC 10490; details: Pseudomonas aeruginosa, NCTC10490, read-out: MIC (minimum effective inhibitory concentration)
Description: as §1

Ps. aeruginosa IID 5142 = experiment: Antibacterial activity (MIC), Ps. aeruginosa IID 5142; details: Pseudomonas aeruginosa, IID5142, read-out: MIC (minimum effective inhibitory concentration)
Description: as §1

Row | Compound | MIC (Staph. aureus ATCC 6538P) [µg/mL] | MIC (Staph. aureus Smith) [µg/mL] | MIC (Staph. aureus Terashima) [µg/mL] | MIC (E. coli Ebara) [µg/mL] | MIC [1] [µg/mL] | MIC (Proteus morgani IID 602) [µg/mL] | MIC (Serr. marcescens IID 620) [µg/mL] | MIC [2] [µg/mL] | MIC (Ent. cloacae V-8) [µg/mL] | MIC [3] [µg/mL] | MIC (Ps. aeruginosa IID 5142) [µg/mL]
1 | NC(=O)c1cc[n+](CC2=C(C(=O)[O-])N3C(=O)C(NC(=O)/C(=N\OCc4csc(N)n4)c4csc(N)n4)C3SC2)cc1 (stereo not drawn) [Example 9, (Z)-7-{α-(2-amino-4-thiazolyl)-α-[(2-amino-4-thiazolyl)methoxyimino]acetamido}-3-(4-carbamoyl-1-pyridiniummethyl)-3-cephem-4-carboxylate] | 1.56 (≈ 2.53 µM) | 1.56 (≈ 2.53 µM) | 1.56 (≈ 2.53 µM) | ≤ 0.2 | ≤ 0.2 | 0.39 (≈ 0.633 µM) | 0.78 (≈ 1.27 µM) | 1.56 (≈ 2.53 µM) | 3.13 (≈ 5.08 µM) | 0.39 (≈ 0.633 µM) | 6.25 (≈ 10.2 µM)
2 | Nc1nc(CO/N=C(\C(=O)NC2C(=O)N3C(C(=O)[O-])=C(C[n+]4cccc(C(=O)NCC(=O)O)c4)CSC23)c2csc(N)n2)cs1 (stereo not drawn) [Example 20, (Z)-7-{α-(2-amino-4-thiazolyl)-α-[(2-amino-4-thiazolyl)methoxyimino]acetamido}-3-{3-[N-(carboxylatemethyl)carbamoyl]-1-pyridiniomethyl}-3-cephem-4-carboxylate mono-sodium salt] | 6.25 | 6.25 | 12.5 | 6.25 | 0.39 | 1.56 | ≤ 0.2 | 3.13 | 12.5 | 1.56 | 25
3 | Nc1nc(CON=C(C(=O)NC2C(=O)N3C(C(=O)[O-])=C(C[n+]4ccc(C(=O)NO)cc4)CS[C@H]23)c2csc(N)n2)cs1 (stereo partly drawn) [Example 23, (Z)-7-{α-(2-amino-4-thiazolyl)-α-[(2-amino-4-thiazolyl)methoxyimino]acetamido}-3-(4-hydroxycarbamoyl-1-pyridiniomethyl)-3-cephem-4-carboxylate] | 3.13 (≈ 4.96 µM) | 6.25 (≈ 9.89 µM) | 3.13 (≈ 4.96 µM) | 0.39 (≈ 0.617 µM) | ≤ 0.2 | 0.78 (≈ 1.23 µM) | 0.39 (≈ 0.617 µM) | 1.56 (≈ 2.47 µM) | 3.13 (≈ 4.96 µM) | 0.39 (≈ 0.617 µM) | 6.25 (≈ 9.89 µM)
4 | Nc1nc(CO/N=C(\C(=O)NC2C(=O)N3C(C(=O)[O-])=C(C[n+]4cccc(S(=O)(=O)O)c4)CSC23)c2csc(N)n2)cs1 (stereo not drawn) [Example 17, (Z)-7-{α-(2-amino-4-thiazolyl)-α-[(2-amino-4-thiazolyl)methoxyimino]acetamido}-3-(3-sulfonate-1-pyridiniomethyl)-3-cephem-4-carboxylate mono-sodium salt] | 6.25 | 6.25 | 12.5 | 12.5 | 0.39 | 1.56 | 0.39 | 3.13 | 6.25 | 1.56 | 25
5 | Nc1nc(CO/N=C(\C(=O)NC2C(=O)N3C(C(=O)[O-])=C(C[n+]4ccc(C(=O)O)cc4)CSC23)c2csc(N)n2)cs1 (stereo not drawn) [Example 14, (Z)-7-{α-(2-amino-4-thiazolyl)-α-[(2-amino-4-thiazolyl)methoxyimino]acetamido}-3-(4-carboxylate-1-pyridiniomethyl)-3-cephem-4-carboxylatemono-sodium salt] | 3.13 | 3.13 | 6.25 | 3.13 | ≤ 0.2 | 0.78 | ≤ 0.2 | 1.56 | 3.13 | 0.39 | 12.5
6 | CC(=O)OCC1=C(C(=O)O)N2C(=O)C(NC(=O)/C(=N\OCc3csc(N)n3)c3csc(N)n3)[C@H]2SC1 (stereo partly drawn) [2(b), (Z)-7-{α-(2-amino-4-thiazolyl)-α-[(2-amino-4-thiazolyl)methoxyimino]acetamido}-3-acetoxymethyl-3-cephem-4-carboxylic acid] | 1.56 (≈ 2.82 µM) | 1.56 (≈ 2.82 µM) | 3.13 (≈ 5.65 µM) | ≤ 0.2 | ≤ 0.2 | 0.39 (≈ 0.704 µM) | 0.78 (≈ 1.41 µM) | 1.56 (≈ 2.82 µM) | 3.13 (≈ 5.65 µM) | 0.39 (≈ 0.704 µM) | 25 (≈ 45.2 µM)
7 | Nc1nc(CO/N=C(\C(=O)NC2C(=O)N3C(C(=O)[O-])=C(C[n+]4ccccn4)CSC23)c2csc(N)n2)cs1 (stereo not drawn) [Example 7, (Z)-7-{α-(2-amino-4-thiazolyl)-α-[(2-amino-4-thiazolyl)methoxyimino]acetamido}-3-(1-pyridadiniomethyl)-3-cephem-4-carboxylate] | 1.56 (≈ 2.72 µM) | 1.56 (≈ 2.72 µM) | 1.56 (≈ 2.72 µM) | 0.78 (≈ 1.36 µM) | ≤ 0.2 | 1.56 (≈ 2.72 µM) | 0.39 (≈ 0.68 µM) | 3.13 (≈ 5.46 µM) | 6.25 (≈ 10.9 µM) | 0.78 (≈ 1.36 µM) | 12.5 (≈ 21.8 µM)
